Reference: ChEMBL document CHEMBL4017441, “Mitigating the inhibition of human bile salt export pump by drugs: opportunities provided by physicochemical property modulation, in silico modeling, and structural modification” (Drug Metab Dispos, 2012)

Target: T1, Bile salt export pump (Rattus norvegicus, UniProt O70127)
T1 sequence (O70127 whole entry): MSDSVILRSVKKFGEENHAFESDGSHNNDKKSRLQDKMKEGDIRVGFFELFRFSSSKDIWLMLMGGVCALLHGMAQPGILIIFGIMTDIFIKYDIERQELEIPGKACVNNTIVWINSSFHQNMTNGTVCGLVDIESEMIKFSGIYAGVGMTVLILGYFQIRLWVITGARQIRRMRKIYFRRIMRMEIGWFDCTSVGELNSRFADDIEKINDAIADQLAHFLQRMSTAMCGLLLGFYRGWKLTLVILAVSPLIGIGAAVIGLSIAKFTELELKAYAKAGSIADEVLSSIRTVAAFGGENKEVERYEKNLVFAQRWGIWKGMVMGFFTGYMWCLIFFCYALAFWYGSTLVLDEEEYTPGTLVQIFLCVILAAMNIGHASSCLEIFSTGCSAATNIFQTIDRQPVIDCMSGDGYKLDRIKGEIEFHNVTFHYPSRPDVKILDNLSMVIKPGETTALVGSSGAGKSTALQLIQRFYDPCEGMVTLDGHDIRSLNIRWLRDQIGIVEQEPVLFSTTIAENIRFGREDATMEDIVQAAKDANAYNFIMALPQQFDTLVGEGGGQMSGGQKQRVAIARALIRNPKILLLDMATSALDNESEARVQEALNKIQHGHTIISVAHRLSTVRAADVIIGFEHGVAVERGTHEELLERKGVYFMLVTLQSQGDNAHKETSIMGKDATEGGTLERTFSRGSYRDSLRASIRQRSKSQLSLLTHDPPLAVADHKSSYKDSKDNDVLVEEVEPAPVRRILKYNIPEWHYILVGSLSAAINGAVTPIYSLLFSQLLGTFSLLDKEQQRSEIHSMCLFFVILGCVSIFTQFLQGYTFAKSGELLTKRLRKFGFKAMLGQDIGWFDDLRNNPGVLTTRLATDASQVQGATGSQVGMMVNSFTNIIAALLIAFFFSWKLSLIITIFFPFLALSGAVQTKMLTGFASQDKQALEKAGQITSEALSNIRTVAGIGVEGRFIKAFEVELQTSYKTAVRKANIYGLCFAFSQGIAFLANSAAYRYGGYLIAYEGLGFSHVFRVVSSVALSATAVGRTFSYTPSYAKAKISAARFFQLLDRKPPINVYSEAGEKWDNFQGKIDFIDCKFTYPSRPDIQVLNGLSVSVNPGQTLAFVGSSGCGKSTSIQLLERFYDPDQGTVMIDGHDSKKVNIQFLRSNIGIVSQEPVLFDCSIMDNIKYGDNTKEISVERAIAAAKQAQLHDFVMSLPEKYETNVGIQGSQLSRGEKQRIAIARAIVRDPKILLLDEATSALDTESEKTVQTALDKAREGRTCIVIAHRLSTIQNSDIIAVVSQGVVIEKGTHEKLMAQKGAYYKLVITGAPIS
Assay: Inhibition of BSEP in Sprague-Dawley rat canalicular membrane vesicles assessed as reduction in ATP-dependent [3H]-taurocholate uptake
Assay type: ADME

COc1ccc(CCN(C)CCCC(C#N)(c2ccc(OC)c(OC)c2)C(C)C)cc1OC (stereo unspecified)
Ki: 92.5 µM
